Key:
PAEC [1] = test: Mitochondrial membrane potential (TMRM) in PAEC; assay type: cell-based, ovine; settings: 4αPDD 10 μM, 3 h
Protocol: (§1) Primary cultures of ovine pulmonary arterial endothelial cells (PAEC) were isolated as described previously (L. K. Kelly, Am J Physiol Lung Cell Mol Physiol, 286(5), L984-91 (2004)). Briefly, cells were maintained in Dulbecco's modified Eagle medium (DMEM) supplemented with 10% fetal calf serum (Hyclone, Logan, UT), antibiotics/antimycotic (500 IU Penicillin, 500 μg/ml Streptomycin, 1.25 μg/ml Amphotericin B; MediaTech, Herndon, VA) at 37° C. in a humidified atmosphere with 5% CO2 and 95% air. Cells were used for experiments between passages 9-14, seeded at ˜50% confluence, and utilized when fully confluent.
Mitochondrial membrane potential was determined using TMRM (tetramethylrhodamine methyl ester perchlorate, Molecular Probes, Eugene, OR). Briefly, after each experiment, cells were washed with fresh media, incubated in media containing TMRM (50 nM), for 30 min at 37° C. in dark conditions, then subjected to fluorescence microscopy using an excitation of 548 nm and an emission at 575 nm. An Olympus IX51 microscope equipped with a CCD camera (Hamamatsu Photonics) was used for acquisition of fluorescent images and the average fluorescent intensities were quantified using ImagePro Plus version 5.0 imaging software (Media Cybernetics).

PAEC [2] = test: Cellular peroxynitrite levels (DHR 123 oxidation) in PAEC; assay type: cell-based, ovine; settings: 4αPDD
Protocol: as §1
The level of cell peroxynitrite was determined by the oxidation of dihydrorhodamine (DHR) 123 (EMD Millipore, Billerica, MA) to rhodamine 123, as previously described (S. Aggarwal, J Cell Physiol, 226(12), 3104-13 (2011)). Briefly, cultured PAEC were treated with or without TGF-β1 (5 ng/ml, 8 h) or GW9662 (5 μM, 24 h). The cells were collected and the cell pellet was then treated with PEG-Catalase (100 U, 30 min) to reduce H2O2 dependent DHR 123 oxidation. DHR 123 (5 μM, 30 min) was added to the cell pellet in phenol red-free media and the fluorescence of rhodamine 123 measured using a Fluoroskan Ascent Microplate Fluorometer with excitation at 485 nm and emission at 545 nm. Fluorescent values were normalized to the protein levels in each sample.

PAEC [3] = test: Mitochondrial ROS levels (MitoSOX Red) in PAEC; assay type: cell-based, ovine; settings: 4αPDD 10 μM, 3 h
Protocol: as §1
MitoSOX™ Red (Molecular Probes), a fluorogenic dye for selective detection of ROS levels in the mitochondria of live cells was used. Briefly, cells were washed with fresh media, and then incubated in media containing MitoSOX Red (2 μM), for 30 min at 37° C. in dark conditions then subjected to fluorescence microscopy at an excitation of 510 nm and an emission at 580 nm. An Olympus IX51 microscope equipped with a CCD camera (Hamamatsu Photonics) was used for acquisition of fluorescent images. The average fluorescent intensities (to correct for differences in cell number) were quantified using ImagePro Plus version 5.0 imaging software (Media Cybernetics, Rockville, MD).

purified eNOS protein = biological target: T1, purified eNOS protein (Homo sapiens, UniProt P29474); test: In vitro peptide binding assay (biotinylated d-peptide, streptavidin capture, blot); settings: biotinylated d-peptide 0 to 5 μg, 1 hour room temperature
T1 sequence (P29474 1-1203): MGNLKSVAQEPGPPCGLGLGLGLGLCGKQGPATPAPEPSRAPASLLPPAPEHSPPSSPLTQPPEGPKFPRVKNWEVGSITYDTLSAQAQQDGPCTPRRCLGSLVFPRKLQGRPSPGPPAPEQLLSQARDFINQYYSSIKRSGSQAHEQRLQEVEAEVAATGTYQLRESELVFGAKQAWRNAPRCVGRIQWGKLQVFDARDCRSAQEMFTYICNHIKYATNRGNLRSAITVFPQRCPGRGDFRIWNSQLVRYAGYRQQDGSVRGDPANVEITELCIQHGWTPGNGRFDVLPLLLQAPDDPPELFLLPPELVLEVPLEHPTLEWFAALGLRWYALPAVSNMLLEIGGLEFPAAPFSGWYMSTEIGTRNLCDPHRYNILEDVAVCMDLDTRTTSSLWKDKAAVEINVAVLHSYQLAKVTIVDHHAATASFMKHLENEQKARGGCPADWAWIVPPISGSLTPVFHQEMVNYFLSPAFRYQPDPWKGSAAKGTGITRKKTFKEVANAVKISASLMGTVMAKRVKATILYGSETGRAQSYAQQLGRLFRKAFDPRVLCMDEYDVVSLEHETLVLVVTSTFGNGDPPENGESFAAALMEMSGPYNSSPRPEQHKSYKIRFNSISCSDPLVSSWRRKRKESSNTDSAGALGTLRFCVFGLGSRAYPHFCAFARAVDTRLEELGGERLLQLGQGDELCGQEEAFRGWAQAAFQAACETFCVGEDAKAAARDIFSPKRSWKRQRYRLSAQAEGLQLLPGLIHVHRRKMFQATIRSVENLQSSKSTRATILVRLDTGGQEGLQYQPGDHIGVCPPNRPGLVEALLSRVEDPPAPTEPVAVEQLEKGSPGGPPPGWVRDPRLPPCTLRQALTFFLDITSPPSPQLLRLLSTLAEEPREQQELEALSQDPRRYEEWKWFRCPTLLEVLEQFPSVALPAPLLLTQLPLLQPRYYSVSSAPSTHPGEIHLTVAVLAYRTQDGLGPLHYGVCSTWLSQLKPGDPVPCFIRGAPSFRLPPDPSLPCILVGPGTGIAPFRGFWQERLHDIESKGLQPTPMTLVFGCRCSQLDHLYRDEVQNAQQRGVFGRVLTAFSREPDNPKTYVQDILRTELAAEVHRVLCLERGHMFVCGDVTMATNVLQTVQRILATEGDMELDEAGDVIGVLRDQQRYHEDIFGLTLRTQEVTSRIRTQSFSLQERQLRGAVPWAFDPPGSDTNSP
Protocol: Biotinylation of the decoy peptide (d-peptide) was performed using the Thermo Scientific EZ-Link Sulfo-NHS-LC-Biotinylation Kit. Briefly, Sulfo-NHS-LC-Biotin was mixed with d-peptide and the reaction mix was incubated at room temperature for 30 minutes. Different concentrations of the biotinylated d-peptide (0 to 5 μg) mixed with either purified eNOS protein or PKCα protein in a reaction mix containing PKC lipid activator were incubated at room temperature for 1 hour. Protein bound to the biotinylated d-peptide was captured using Thermo Scientific streptavidin agarose column and run on a 10% SDS-PAGE gel under reducing condition. The resulting blots were probed with antibodies to eNOS and PKCα protein respectively. Reactive bands were visualized using chemiluminescence on the LI-COR Odyssey image station.

Compound	mitochondrial membrane potential (TMRM) (PAEC [1])	cellular peroxynitrite levels (PAEC [2])	mitochondrial ROS levels (MitoSOX red fluorescence) (PAEC [3])	binding to eNOS (purified eNOS protein)
CCCCCCCCCC(=O)O[C@@H]1[C@@H](C)[C@@]2(O)[C@@H](C=C(CO)C[C@@]3(O)C(=O)C(C)=C[C@@H]23)[C@@H]2C(C)(C)[C@]12OC(=O)CCCCCCCCC [4αPDD, 4α-Phorbol-12,13 didecanoate]	decrease in the mitochondrial membrane potential	increases	increases in mitochondrial ROS levels	
HRKKRRQRRITRKKTFKEVA [d-peptide]				but not to eNOS
